Results reported in US12419976B2, “Hybrid tracers for targeted cancer imaging and treatment” (ACADEMISCH ZIEKENHUIS LEIDEN (H.O.D.N. LUMC), priority 2018, dated 2025).
“And” between values parts separate entries of the source, which are not always exact repeats. Identical values can stand only once. Where a SMILES comes first, the peptide text is derived from it. [ ]: non-standard residue; d: D form. The star is where a group is joined. X1 = O=C(O)CC[C@H](NC(=O)N[C@@H](CCCCNC(=O)CCCCCCC(=O)*)C(=O)O)C(=O)O; d2Nal = N[C@H](Cc1ccc2ccccc2c1)C(=O)O; Mercaptoacetyl = O=C(CS)*

How the values were obtained:
PSMA [1] = molecular target: T1, PSMA (Homo sapiens, UniProt Q04609); assay: Competitive binding assay, LNCaP cells, EuK[125I]I-BA radioligand; conditions: for IC50: human LNCaP cells, EuK[125I]I-BA competitive radioligand, n ≥ 3, read-out: IC50 (PSMA affinity)
T1 construct: endogenous in cells; host or cells: LNCaP cells
Protocol: (§1) Fluoresence confocal microscopy was utilised as a tool for receptor localisation. As depicted in FIG. 3, a typical PSMA-targeting tracer brightly stains the extracellular receptor. IC50 was determined in a competitive binding assay using human LNCaP cells and EuK[^125I]I-BA as competitive radioligand.

[2] = system: orthotopically transplanted PC346C cells; assay: Ex vivo biodistribution in tumour-bearing mice; conditions: for Hepatic clearance: FIG. 5C, in %ID/g
Protocol: (§2) A) In vivo SPECT imaging. Coronal SPECT imaging image of prostate tumour-bearing mice injected with either one of the PSMA hybrid tracer analogues. Organs are denoted as Lu (lungs), Li (liver), G (gallbladder), S (spleen), K (kidneys), B (bladder) and T (tumour). B) Comparison of biodistribution of the hybrid tracer matrix compared to the clinically approved tracer PSMA I&S, with C) providing the biodistribution of hybrid tracer EUK(SO3)—CY5-MAS3. Biodistribution pattern at 2 h post injection of the different hybrid tracers from the matrix compared to the reference tracer PSMA I&S depicted as percentage of the injected dose per gram tissue (% ID/g).
FIG. 5 illustrates biodistribution parameters and tumour uptake for exemplary hybrid tracers. Overview of A) the % Injected activity found in all excised organs percentage of the injected activity that remained at 2 h post tracer injection (all ns), B) the amount of radioactivity still present in the blood pool and C) no significant differences in hepatic clearance between the compounds. To highlight the visibility of the tumour over background tissue notorious for occluding signal within the area of the prostate, the D) tumour-to-fat and E) the tumour-to-blood ratio are provided for the individual hybrid tracers. Significance portrayed as: nothing (non-significant) *(p≤0.05) **(p≤0.01) ***(p≤0.001).
(§3) The in vivo characteristics were investigated in male BALB/c nude mice using orthotopically transplanted PC346C cells. These mice were analysed in various ways, i.e., in vivo nuclear imaging (SPECT) in tumour-bearing mice, in vivo optical imaging (fluorescence imaging) in tumour-bearing mice, ex vivo biodistribution (percentage injected dose per gram (% ID/g)) in healthy and tumour-bearing mice and ex vivo fluorescence imaging.

[3] = Lipophilicity logP(o/w) of 99mTc-labeled hybrid tracers; assay type: physicochemical; conditions: octanol/water, n = 6
[4] = Photophysical properties of Cy5 dyes and hybrid tracers in PBS; assay type: physicochemical
Protocol: The brightness of a dye—one of the most important photophysical characteristics in a clinical setting—is the product of its molar extinction coefficient (e) and quantum yield (ϕF). We therefore set out to determine the e of each fluorophore by creating a linear concentration range (7.5-0.25 μM) in PBS and measuring the corresponding absorbance (Table 1). The addition of a sulfonate on the carboxylic-acid-containing indoline moiety diminishes the epsilon and the use of extra aryl moieties on the cyanine backbone greatly diminishes the dyes' solvability and thus their epsilon is greatly diminished as well.
The ϕF of a fluorophore is the relation between the number of photons emitted divided by the number of photons absorbed by a single molecule. It is therefore also called the emission efficiency. […] Perhaps an asymmetrical cyanine core, with its significant electron density imbalance, is an inefficient fluorophore. In line with our expectations-since the benzo[e]indole caused J-aggregate formation, the ϕF of benzo[e]indole-containing fluorophores were diminished. […] The only trend derived from the abovementioned data is that the free fluorophore benefits (when optimising emission efficiency) from symmetrical substituents on the cyanine structure.
As the brightness of a fluorophore (or hybrid tracer) is one of its most important photophysical traits, we calculated the brightness for all fluorophores. In order to give insight in the hybrid tracer's optical performance, the brightness was determined by using the ε of its corresponding fluorophore in PBS. […] EuK(SO3)-Cy5-MAS3 thus contains the most favourable photophysical characteristics out of these 6 exemplary hybrid tracers.

[5] = Stability in serum at 37° C., absorbance and fluorescence after 24 h; assay type: in vitro ADME; conditions: n = 2
Protocol: Not only serum binding, but also the stability in serum is valuable. This characteristic is another brick in the wall for the preclinical evaluation of hybrid tracers since this indicates a compound's in vivo stability. Clearly, any compound degrading in an in vivo environment is not suited for clinical use. All hybrid tracers were incubated in serum at 37° C. and their absorbance and fluorescence were measured after 24 h.

serum albumin = serum albumin (Homo sapiens, UniProt P02768); assay: Plasma protein binding (serum binding); assay type: in vitro ADME; conditions: for fraction unbound: serum albumin, n = 3 (Table 3); for Plasma protein binding (PPB): FIG. 2A
Excerpt: FIG. 2 illustrates the results for plasma protein interaction assays for exemplary hybrid tracer compounds. A) Plasma protein binding as a percentage of the indicated hybrid tracers bound to serum albumin. All hybrid tracers portray significant differences (p<0.05) except when noted (ns).
Serum binding, or rather plasma protein binding (PPB) is a useful pharmacokinetic characteristic for the initial assessment of tracer candidates prior to in vivo use as PPB is directly related to, e.g., blood retention and clearance rates. All hybrid tracers have PPB with values between 52-89% with an average of 76±12% (FIG. 2A). The benzo[e]indole-containing hybrid tracers (EuK(Ar)-Cy5-MAS3, EuK-Cy5-(Ar)MAS3 and EuK(Ar)Cy5-(Ar)MAS3) tend to have the highest PPB. […] This can be explained by Sudlow's site, a binding pocket in albumin's subdomain IIA, which binds bulky heterocyclic anions. No clear correlation could be found between c log D and serum binding. Even though PPB has a relation to the lipophilicity, it was expected that we could not predict the PPB based on the c log D as the PPB cannot be explained by a single physiochemical characteristic.

[6] = system: orthotopically transplanted PC346C cells; assay: In vivo SPECT imaging in tumour-bearing mice; conditions: tumour-bearing nude BALB/c mice, FIG. 4A
Protocol: as §2, §3

PSMA [7] = molecular target: T1, PSMA; assay: Fluorescence confocal microscopy of LNCaP cells; assay type: cell-based; conditions: FIG. 3
Protocol: A) provides a brightfield image of incubated cells. B) provides an overlay of confocal images of incubated cells with Cy5-related signal of the PSMA-targeting tracer in red, the nucleus in blue and lysosomes in the cytoplasm in green. C) provides an overlay of the confocal and brightfield images.
as §1

Chain of serum albumin (P02768 25-609): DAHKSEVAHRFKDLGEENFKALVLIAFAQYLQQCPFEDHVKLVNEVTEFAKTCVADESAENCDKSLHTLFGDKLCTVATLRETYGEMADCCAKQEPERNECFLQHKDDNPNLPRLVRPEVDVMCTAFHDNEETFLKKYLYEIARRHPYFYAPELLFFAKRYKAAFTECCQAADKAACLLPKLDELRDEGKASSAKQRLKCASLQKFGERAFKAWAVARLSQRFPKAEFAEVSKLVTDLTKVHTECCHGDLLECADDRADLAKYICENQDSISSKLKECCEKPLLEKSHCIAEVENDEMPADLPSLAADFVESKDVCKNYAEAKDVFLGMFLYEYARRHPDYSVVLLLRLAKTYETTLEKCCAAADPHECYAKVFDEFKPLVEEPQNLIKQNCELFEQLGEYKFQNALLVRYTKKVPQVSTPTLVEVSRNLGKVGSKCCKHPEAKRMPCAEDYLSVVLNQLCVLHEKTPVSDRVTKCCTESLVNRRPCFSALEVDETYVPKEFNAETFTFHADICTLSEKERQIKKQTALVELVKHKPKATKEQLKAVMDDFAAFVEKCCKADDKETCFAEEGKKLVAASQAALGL
T1 sequence (Q04609 whole entry): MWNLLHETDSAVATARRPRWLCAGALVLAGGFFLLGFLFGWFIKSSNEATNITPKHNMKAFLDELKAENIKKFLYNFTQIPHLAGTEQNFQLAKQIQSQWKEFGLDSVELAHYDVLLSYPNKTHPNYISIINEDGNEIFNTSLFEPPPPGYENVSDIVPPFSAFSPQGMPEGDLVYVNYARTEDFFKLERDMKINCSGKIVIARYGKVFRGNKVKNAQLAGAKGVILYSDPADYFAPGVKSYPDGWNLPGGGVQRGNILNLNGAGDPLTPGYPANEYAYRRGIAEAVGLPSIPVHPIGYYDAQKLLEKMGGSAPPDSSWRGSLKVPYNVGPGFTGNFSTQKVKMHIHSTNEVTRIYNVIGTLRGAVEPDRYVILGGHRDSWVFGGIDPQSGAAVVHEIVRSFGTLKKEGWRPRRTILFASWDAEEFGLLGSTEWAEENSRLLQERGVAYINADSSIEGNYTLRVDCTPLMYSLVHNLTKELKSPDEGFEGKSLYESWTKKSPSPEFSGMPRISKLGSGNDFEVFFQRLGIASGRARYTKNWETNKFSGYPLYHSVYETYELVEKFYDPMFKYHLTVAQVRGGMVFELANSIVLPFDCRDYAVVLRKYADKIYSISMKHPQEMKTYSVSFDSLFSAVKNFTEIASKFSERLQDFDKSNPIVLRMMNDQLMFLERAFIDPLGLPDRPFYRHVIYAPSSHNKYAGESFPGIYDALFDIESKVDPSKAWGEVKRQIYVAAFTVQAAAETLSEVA

Structure (SMILES)	IC50 (PSMA [1])	Hepatic clearance [2]	Tumour-to-fat ratio (T/F) ([2]; FIG. 5D)	logP [3]	Stokes shift [4]	ΦF (quantum yield) [4]	λem [4]	λex [4]	Serum stability after 24 h, remaining absorbance [5]	Serum stability after 24 h, remaining fluorescence [5]	fraction unbound (serum albumin)	Blood retention ([2]; 2 h post injection, FIG. 5B)	Brightness ([4]; determined using the ε of the hybrid tracer's corresponding fluorophore)	Plasma protein binding (PPB) (serum albumin)	Kidney accumulation ([2]; biodistribution 2 h post injection)	PSMA affinity relative to EuK-Cy5(SO3)-MAS3 (PSMA [1]; ratio of affinities)	Nuclear (SPECT) imaging of the tumour [6]	Tumour-to-blood ratio (T/B) ([2]; FIG. 5E)	Staining of LNCaP cells (confocal) (PSMA [7])
CC(=O)SCC(=O)NC(CO)C(=O)NC(CO)C(=O)NC(CO)C(=O)NCCCCCC(=O)NCCCCN1C(=CC=CC=CC2=[N+](CCCCCC(=O)NCCCCC(NC(=O)NC(CCC(=O)O)C(=O)O)C(=O)O)c3ccccc3C2(C)C)C(C)(C)c2ccccc21 (stereo not drawn) [EuK-Cy5-MAS3]	0.175 ± 0.0616 µM	19.93±13.44	2542±287	-2.13 ± 0.1	18 nm	16%	663 nm	644 nm	80 ± 6 % remaining	86 ± 5 % remaining	0.117								
CC(=O)SCC(=O)NC(CO)C(=O)NC(CO)C(=O)NC(CO)C(=O)NCCCCCC(=O)NCCCCN1C(=CC=CC=CC2=[N+](CCCCCC(=O)NCCCCC(NC(=O)NC(CCC(=O)O)C(=O)O)C(=O)O)c3ccc4ccccc4c3C2(C)C)C(C)(C)c2ccccc21 (stereo not drawn) [EuK(Ar)-Cy5-MAS3]	0.113 ± 0.0359 µM	0.94±0.13 and 1.10±0.14		-1.75 ± 0.1	18 nm	9%	682 nm	664 nm	85 ± 3 % remaining	79 ± 1 % remaining	0.093	6.91±1.08 ID/g	3^‡ 10^3 M^−1 · cm^−1	highest PPB					
O=C(O)CC[C@H](NC(=O)N[C@@H](CCCCNC(=O)CCCCCCC(=O)NCCCC[C@@H](NC(=O)[C@@H](Cc1ccc2ccccc2c1)NC(=O)[C@@H](Cc1ccc(O)cc1)NC(=O)[C@@H](CO)NC(=O)[C@@H](CO)NC(=O)[C@@H](CO)NC(=O)CS)C(=O)O)C(=O)O)C(=O)O [PSMA I&S, reference compound] (Mercaptoacetyl-[dS][dS][dS][dY][d2Nal][dK](X1)-OH)															186.0±23.0 ID/g				
CC(=O)SCC(=O)NC(CO)C(=O)NC(CO)C(=O)NC(CO)C(=O)NCCCCCC(=O)NCCCCN1C(=CC=CC=CC2=[N+](CCCCCC(=O)NCCCCC(NC(=O)NC(CCC(=O)O)C(=O)O)C(=O)O)c3ccc(S(=O)(=O)[O-])cc3C2(C)C)C(C)(C)c2ccccc21 (stereo not drawn) [EuK(SO3)-Cy5-MAS3]	0.019 µM and 0.0192 µM	2.90±2.06		-2.86 ± 0.05	16 nm		664 nm	648 nm	97 ± 2 % remaining	89 ± 6 % remaining	0.15			significantly higher than the PPB of EuK-Cy5-MAS3		more than 9 fold	clear nuclear imaging of the tumour	1713	PSMA-related staining of LNCaP cells
